Activity calls are given as the source filed them. The rule behind the calls is not given here.
Legend:
[1] = biological target: Histone deacetylase 9 (Homo sapiens) (UniProt Q9UKV0); test: Inhibition of human HDAC9 at 330 uM by HDAC-Glo1/2 luminescent assay
[2] = biological target: T1, Protein deacetylase HDAC6 (Homo sapiens) (UniProt Q9UBN7); test: Inhibition of human HDAC6 at 330 uM by HDAC-Glo1/2 luminescent assay relative to control
T1 sequence (whole entry): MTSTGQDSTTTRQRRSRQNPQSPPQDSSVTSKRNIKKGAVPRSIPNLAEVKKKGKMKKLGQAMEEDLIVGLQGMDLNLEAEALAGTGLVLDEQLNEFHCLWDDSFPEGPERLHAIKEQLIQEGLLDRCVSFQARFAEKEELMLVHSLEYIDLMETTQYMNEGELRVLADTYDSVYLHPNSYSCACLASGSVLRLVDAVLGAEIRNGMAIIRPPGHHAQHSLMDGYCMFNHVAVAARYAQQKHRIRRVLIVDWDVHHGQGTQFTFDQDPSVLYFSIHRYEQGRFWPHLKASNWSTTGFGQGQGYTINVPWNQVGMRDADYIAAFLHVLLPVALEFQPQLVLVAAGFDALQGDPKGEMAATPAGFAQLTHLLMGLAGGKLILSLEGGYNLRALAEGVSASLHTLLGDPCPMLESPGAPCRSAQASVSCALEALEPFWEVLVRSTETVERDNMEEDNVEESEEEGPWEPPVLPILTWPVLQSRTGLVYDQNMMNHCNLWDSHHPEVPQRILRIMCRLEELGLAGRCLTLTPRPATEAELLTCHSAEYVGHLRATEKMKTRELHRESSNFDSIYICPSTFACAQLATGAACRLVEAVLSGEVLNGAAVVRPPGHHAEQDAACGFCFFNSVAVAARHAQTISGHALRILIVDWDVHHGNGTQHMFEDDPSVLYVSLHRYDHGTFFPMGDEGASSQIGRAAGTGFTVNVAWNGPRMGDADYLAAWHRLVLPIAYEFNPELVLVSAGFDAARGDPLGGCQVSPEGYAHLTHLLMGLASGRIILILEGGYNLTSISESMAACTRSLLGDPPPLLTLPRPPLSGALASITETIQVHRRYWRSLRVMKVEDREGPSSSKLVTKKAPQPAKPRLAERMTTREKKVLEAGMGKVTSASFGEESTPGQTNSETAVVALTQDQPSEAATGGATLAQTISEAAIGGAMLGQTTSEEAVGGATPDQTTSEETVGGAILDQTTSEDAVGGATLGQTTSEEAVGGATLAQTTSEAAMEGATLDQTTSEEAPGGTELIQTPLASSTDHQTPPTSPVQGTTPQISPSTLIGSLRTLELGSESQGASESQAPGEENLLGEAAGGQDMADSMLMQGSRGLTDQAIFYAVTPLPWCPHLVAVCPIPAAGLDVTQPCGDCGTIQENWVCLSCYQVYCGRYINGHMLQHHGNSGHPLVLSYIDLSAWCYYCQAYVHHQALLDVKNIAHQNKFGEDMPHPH

A9 [3] = test: (§1) Inhibition of class 2 HDAC in mouse A9 cells after 30 mins by luminescent assay; assay type: cell-based
[4] = as §1; assay type: cell-based
A9 [5] = test: (§2) Inhibition of class 1 HDAC in mouse A9 cells after 30 mins by luminescent assay; assay type: cell-based
[6] = as §2; assay type: cell-based

Sequence of Histone deacetylase 9 (Homo sapiens) (Q9UKV0 whole entry): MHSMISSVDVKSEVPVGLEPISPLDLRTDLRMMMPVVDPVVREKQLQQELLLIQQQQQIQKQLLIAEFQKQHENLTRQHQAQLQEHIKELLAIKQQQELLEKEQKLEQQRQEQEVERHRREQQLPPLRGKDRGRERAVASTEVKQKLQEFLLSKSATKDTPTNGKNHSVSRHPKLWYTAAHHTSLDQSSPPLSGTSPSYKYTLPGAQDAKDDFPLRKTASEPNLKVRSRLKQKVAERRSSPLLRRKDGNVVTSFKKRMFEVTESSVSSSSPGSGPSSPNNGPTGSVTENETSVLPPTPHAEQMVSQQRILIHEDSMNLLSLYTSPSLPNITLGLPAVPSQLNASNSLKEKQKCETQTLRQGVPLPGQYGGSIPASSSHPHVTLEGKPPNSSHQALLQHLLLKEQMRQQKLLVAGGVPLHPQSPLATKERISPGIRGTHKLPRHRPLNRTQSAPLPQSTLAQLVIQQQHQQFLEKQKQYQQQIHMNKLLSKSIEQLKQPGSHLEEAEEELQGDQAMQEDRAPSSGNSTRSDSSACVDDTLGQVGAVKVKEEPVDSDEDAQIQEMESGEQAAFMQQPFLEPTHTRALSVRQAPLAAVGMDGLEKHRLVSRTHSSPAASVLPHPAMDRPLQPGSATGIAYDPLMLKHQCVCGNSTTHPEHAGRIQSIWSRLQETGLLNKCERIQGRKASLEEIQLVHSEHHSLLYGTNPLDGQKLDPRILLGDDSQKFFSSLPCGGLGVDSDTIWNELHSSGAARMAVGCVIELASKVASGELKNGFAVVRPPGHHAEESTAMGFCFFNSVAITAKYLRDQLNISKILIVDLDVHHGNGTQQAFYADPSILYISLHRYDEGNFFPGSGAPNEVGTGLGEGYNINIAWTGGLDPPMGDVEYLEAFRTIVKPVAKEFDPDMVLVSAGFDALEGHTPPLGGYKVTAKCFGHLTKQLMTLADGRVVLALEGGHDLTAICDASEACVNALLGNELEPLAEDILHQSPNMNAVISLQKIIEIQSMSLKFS

inhibition [1] | inhibition [2] [%] | IC50 [4] [µM] | IC50 [6] [µM] | Compound | inhibition (A9 [3]) | inhibition (A9 [5])
inactive | 69 | – | – | COC(=O)C(Cc1ccc(OCC=C(C)C)cc1)N(O)C(=O)/C(C)=N/O (stereo unspecified) | – | –
– | – | 7 | 7 | CC(C)=CCOc1ccc(C/C(=N\O)C(=O)NO)cc1 | Dose-dependent effect | Dose-dependent effect
